Where two headings read alike, the source gives them in different places.
Assays:
[1] = target: D3 receptors (expressed in Sf9 cells) (Rattus norvegicus, UniProt P19020); conditions: for Hill Co.: Table 3, [^125 I]trans-7-OH-PIPAT competition; for Hill Co. / Ki: 37° C., 120 mM NaCl; for affinity for the D3 receptor: competition with [^125 I]trans-7-OH-PIPAT; for Ki: ± SE, [^125 I]trans-7-OH-PIPAT 0.1-0.2 nM
Protocol: Plasmid DNA was isolated by alkaline dialysis and purified by CsCl density gradient centrifugation and overnight dialysis for transfection of Sf9 cells. […] A monolayer of Sf9 cells (approximately 2×10^6 cells/T25 plate) was cotransfected by calcium phosphate precipitation, with 1 mg of AcMNPV DNA (provided by Dr. Max Summers, Texas A&M University, College Station, Tex.) and 2 mg of recombinant transfer vector DNA. […] Putative recombinant viral plaques were chosen by visual screening for occlusion-negative plaques and used to infect 1×10^6 Sf9 cells in a 6-well plate (CoStar, Cambridge, Mass.). Four days after infection, cells were harvested and membranes were prepared. An aliquot of membranes was used for radioligand binding. […] The membrane homogenates of AcMNPVrD3 infected Sf9 cells were prepared as described. Briefly, the harvested cells were centrifuged, resuspended and homogenized in buffer containing 50 mM Tris, pH7.4, 150mM NaCl, 10 mM EDTA and a mixture of protease inhibitors (1 mg/ml aprotinin, 1 mg/ml leupeptin, 1 mg/ml soybean trypsin inhibitor, 10 mg/ml PMSF). The final pellets obtained were resuspended in the same buffer and kept at -20° C. for radioligand binding assays.
Binding assays were performed in glass tubes (12×75 mm) in a final volume of 0.2 ml. The buffer used for the dilution contained 50 mM Tris, pH 7.4, and the protease inhibitors mixture. […] The competition experiments were performed in the presence of 120 mM NaCl. […] After incubation for 30 min at 37° C. or 90 min at 25° C., the bound ligand was separated from the free ligand by filtration through glass fiber filters No. 25 (Schleicher & Schuell, Keene, N.H.) soaked with 0.2% protamine free base. The filters were then washed twice with 4 ml of ice-cold buffer (containing 50 mM Tris-HCl, pH 7.4) and the radioactivity on the filters was counted in a gamma counter (Packard 5000) with 70% efficiency.

[2] = target: T1, D2 dopamine receptor (Rattus norvegicus, UniProt P61169); experiment: Inhibition of [^125 I]NCQ298 binding to D2 dopamine receptors expressed in Sf9 cells; conditions: for HC D2: Table 4, Hill coefficient; for Ki: read-out: Ki D2
T1 construct: made in house; host or cells: Sf9 insect cells infected with recombinant baculovirus (AcMNPVrD2L or AcMNPVrD2S), membrane homogenates

[3] = target: T2, D3 dopamine receptor (Rattus norvegicus, UniProt P19020); experiment: Inhibition of [^125 I]NCQ298 binding to D3 dopamine receptors expressed in Sf9 cells; conditions: for HC D3: Table 4, Hill coefficient; for Ratio D2/D3 / Ki: Table 4 and its discussion; for Ratio D2/D3: Ki(D2)/Ki(D3); for Ki: [^125 I]-NCQ298 0.1 nM, 37° C., 20 min, read-out: Ki D3
T2 construct: made in house; host or cells: Sf9 insect cells infected with recombinant baculovirus AcMNPVrD3, membrane homogenates
Protocol: The construction of pVL1393-rD3 was previously described. […] An aliquot of membranes was used for radioligand binding.
Membranes from AcMNPV-rD3 infected Sf9 cells were prepared. […] Assays were incubated at 37° C. for 20 min. then filtered and washed as described above.

[4] = In-vivo biodistribution in rats; parameters: species or system rat; Brain uptake: unit not given here; conditions: for Brain uptake: table; for tissue uptake at 2 min / tissue uptake at 1 h / tissue uptake at 0.5 h: rat
Protocol: In-vivo biodistribution studies were performed in rats^27 with the two hydroxylated radioligands: [^123 I]-7-OH-DPAT and [^123 I]-7-OH-PIPAT in rats. Concerning [^123 I]-7-OH-DPAT rats were killed either two minutes or thirty minutes post injection and the data are reported in Table 5. […] On the contrary, [^123 I]-7-OH-PIPAT presented a very high brain uptake: 11.812, 9,458 and 5.433% dose/gram of tissue at 2, 30 and 60 min. respectively (See Table 6). […] However, the brain regions, rich in D3 receptors such as Calleja island and olfactory tubercle need to be more deeply investigated.

[5] = Table 4 and its discussion, [^125 I]-NCQ298 0.05 nM, 37° C., 20 min

T1 sequence (P61169 whole entry): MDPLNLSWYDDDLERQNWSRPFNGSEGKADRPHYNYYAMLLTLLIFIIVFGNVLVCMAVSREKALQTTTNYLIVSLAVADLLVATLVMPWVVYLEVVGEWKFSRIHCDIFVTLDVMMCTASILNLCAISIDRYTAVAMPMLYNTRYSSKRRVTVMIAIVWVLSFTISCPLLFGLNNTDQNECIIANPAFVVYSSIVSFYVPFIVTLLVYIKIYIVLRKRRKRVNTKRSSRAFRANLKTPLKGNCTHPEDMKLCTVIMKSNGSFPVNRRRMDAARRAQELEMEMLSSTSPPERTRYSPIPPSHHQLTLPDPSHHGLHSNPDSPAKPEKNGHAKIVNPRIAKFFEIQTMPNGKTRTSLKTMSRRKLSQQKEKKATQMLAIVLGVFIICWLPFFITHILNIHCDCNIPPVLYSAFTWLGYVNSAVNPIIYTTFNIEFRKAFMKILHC
Chain of D3 receptors (expressed in Sf9 cells) (P19020 whole entry): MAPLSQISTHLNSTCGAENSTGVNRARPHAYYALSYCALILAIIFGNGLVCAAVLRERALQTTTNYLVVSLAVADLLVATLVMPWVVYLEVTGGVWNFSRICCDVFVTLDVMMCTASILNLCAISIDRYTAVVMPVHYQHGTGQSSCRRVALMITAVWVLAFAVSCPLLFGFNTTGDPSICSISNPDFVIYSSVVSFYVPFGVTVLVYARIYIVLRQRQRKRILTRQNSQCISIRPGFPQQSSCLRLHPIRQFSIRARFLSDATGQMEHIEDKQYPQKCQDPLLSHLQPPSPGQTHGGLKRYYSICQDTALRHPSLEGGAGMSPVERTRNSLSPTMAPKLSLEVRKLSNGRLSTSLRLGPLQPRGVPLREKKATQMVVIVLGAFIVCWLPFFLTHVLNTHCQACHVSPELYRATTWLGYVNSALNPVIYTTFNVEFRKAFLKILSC
T2 sequence (P19020 whole entry): as above

## CCCN(CCC)C1CCc2cccc(O)c2C1 (racemic) [8-OH-DPAT, 8-hydroxy-2-(di-n-propylamino)tetralin]
[1]
  Hill Co.: 0.78

## CCCN(C/C=C/I)C1CCc2ccc(OC)cc2C1 (stereo not drawn) [7-MeO-PIPAT, 7Methoxy-2-[N-3'-(1'-Iodo-1'E-Propenyl)-N-n-Propylamino]tetralin]
[2]
  HC D2: 1.22
[2]; [5]
  Ki: 1380 ± 193 nM
[3]
  HC D3: 0.93
  Ratio D2/D3: 5.4
  Ki: 257 ± 31 nM

## Oc1ccc2c(c1)CC(NCc1ccccc1)CC2 (stereo not drawn) [7-OH-BAT, 7Hydroxy-2-N-n-Benzylaminotetralin]
[2]
  HC D2: 0.80
[2]; [5]
  Ki: 1860 ± 261 nM
[3]
  affinity / selectivity for the D3 receptor: lowest affinity for the D3 receptor
  HC D3: 1.00
  Ratio D2/D3: 4.8
  Ki: 391 ± 47 nM

## CCCN(C/C=C/[123I])C1CCc2ccc(O)cc2C1 (stereo not drawn) [[^123 I]-7-OH-PIPAT]
[4]; 2 min
  Blood uptake: 2.621 ± 0.298
  Heart uptake: 1.780 ± 0.231
  Kidney uptake: 5.887 ± 1.088
  Liver uptake: 9.687 ± 3.302
  Lung uptake: 5.394 ± 0.589
  Muscle uptake: 33.199 ± 11.64
  Skin uptake: 8.816 ± 1.656
  Spleen uptake: 0.449 ± 0.161
  Thyroid uptake: 0.174 ± 0.012
  Brain uptake: 2.612 ± 0.498
[4]; 30 min
  Blood uptake: 0.785 ± 0.089
  Heart uptake: 0.203 ± 0.054
  Kidney uptake: 0.978 ± 0.276
  Liver uptake: 3.573 ± 0.569
  Lung uptake: 0.768 ± 0.146
  Muscle uptake: 23.546 ± 8.469
  Skin uptake: 6.962 ± 0.362
  Spleen uptake: 0.284 ± 0.011
  Thyroid uptake: 0.045 ± 0.007
  Brain uptake: 0.660 ± 0.096
[4]; 60 min
  Blood uptake: 0.742 ± 0.075
  Heart uptake: 0.100 ± 0.010
  Kidney uptake: 1.042 ± 0.114
  Liver uptake: 2.335 ± 1.391
  Lung uptake: 0.437 ± 0.038
  Muscle uptake: 12.882 ± 3.927
  Skin uptake: 6.148 ± 0.922
  Spleen uptake: 0.180 ± 0.023
  Thyroid uptake: 0.096 ± 0.067
  Brain uptake: 0.321 ± 0.037
[4]; brain, 2 min, read-out: brain uptake
  tissue uptake at 2 min: 11.8 %ID/g
[4]; brain, 60 min, read-out: brain uptake
  tissue uptake at 1 h: 5.43 %ID/g
[4]; cerebellum, 2 min, read-out: Regional uptake, Cerebellum
  tissue uptake at 2 min: 1.61 ± 0.403 %ID/g
[4]; cerebellum, 30 min, read-out: Regional uptake, Cerebellum
  tissue uptake at 0.5 h: 0.379 ± 0.009 %ID/g
[4]; cerebellum, 60 min, read-out: Regional uptake, Cerebellum
  tissue uptake at 1 h: 0.215 ± 0.025 %ID/g
[4]; cortex, 2 min, read-out: Regional uptake, Cortex
  tissue uptake at 2 min: 2 ± 0.038 %ID/g
[4]; cortex, 30 min, read-out: Regional uptake, Cortex
  tissue uptake at 0.5 h: 0.265 ± 0.086 %ID/g
[4]; cortex, 60 min, read-out: Regional uptake, Cortex
  tissue uptake at 1 h: 0.206 ± 0.022 %ID/g
[4]; hippocampus, 2 min, read-out: Regional uptake, Hippocampus
  tissue uptake at 2 min: 1.63 ± 0.222 %ID/g
[4]; hippocampus, 30 min, read-out: Regional uptake, Hippocampus
  tissue uptake at 0.5 h: 0.261 ± 0.064 %ID/g
[4]; hippocampus, 60 min, read-out: Regional uptake, Hippocampus
  tissue uptake at 1 h: 0.216 ± 0.02 %ID/g
[4]; hypothalamus, 2 min, read-out: Regional uptake, Hypothalamus
  tissue uptake at 2 min: 1.83 ± 0.233 %ID/g
[4]; hypothalamus, 30 min, read-out: Regional uptake, Hypothalamus
  tissue uptake at 0.5 h: 0.251 ± 0.009 %ID/g
[4]; hypothalamus, 60 min, read-out: Regional uptake, Hypothalamus
  tissue uptake at 1 h: 0.254 ± 0.033 %ID/g
[4]; rem, 2 min, read-out: Regional uptake, REM
  tissue uptake at 2 min: 1.67 ± 0.224 %ID/g
[4]; rem, 30 min, read-out: Regional uptake, REM
  tissue uptake at 0.5 h: 0.281 ± 0.076 %ID/g
[4]; rem, 60 min, read-out: Regional uptake, REM
  tissue uptake at 1 h: 0.218 ± 0.025 %ID/g
[4]; striatum, 2 min, read-out: Regional uptake, Striatum
  tissue uptake at 2 min: 1.62 ± 0.236 %ID/g
[4]; striatum, 30 min, read-out: Regional uptake, Striatum
  tissue uptake at 0.5 h: 0.263 ± 0.08 %ID/g
[4]; striatum, 60 min, read-out: Regional uptake, Striatum
  tissue uptake at 1 h: 0.212 ± 0.029 %ID/g
[4]; rats, brain
  regional uptake in the different area of the brain: no regional uptake was observed

## CN1CCc2cc(Cl)c(O)cc2[C@@H](c2ccccc2)C1 [SCH23390]
[1]
  Hill Co.: 0.80
  affinity for the D3 receptor: moderate to low affinity

## CCCN(C/C=C/I)C1CCc2ccc(O)cc2C1 (stereo not drawn) [trans-7-OH-PIPAT]
[2]; Table 2, ± SE, [^125 I]NCQ298, Sf9 cells
  Ki: 265 ± 36 nM
[2]
  HC D2: 0.96
[2]; [5]
  Ki: 265 ± 48 nM

## COc1ccc2c(c1)CC(NCc1ccccc1)CC2 (stereo not drawn) [7-MeO-BAT, 7Methoxy-2-N-Benzylaminotetralin]
[2]
  HC D2: 0.78
[2]; [5]
  Ki: 5880 ± 471 nM
[3]
  HC D3: 0.80
  Ratio D2/D3: 3.1
  Ki: 1870 ± 224 nM

## NCCc1c[nH]c2ccc(O)cc12 [5-HT]
[1]
  Hill Co.: 0.90
  Ki: 2340 ± 420 nM

## COC(=O)[C@@H]1[C@H]2C[C@H]3c4[nH]c5ccccc5c4CCN3C[C@@H]2CC[C@@H]1O [Yohimbine]
[1]
  Hill Co.: 0.97
  affinity for the D3 receptor: moderate to low affinity
  Ki: 2430 ± 146 nM
